Tests used:
[1] = molecular target: T1, HbS (Homo sapiens, UniProt P68871+P69905, E7V); assay: 'R'-'T' assay (conversion of oxy HbS to deoxy HbS under deoxygenating conditions); type: biochemical; details: 50% inhibition of HbS 'R'-'T' conversion; 3 uM HbS, <1% O2
T1 construct: HbS was obtained from the blood of homozygous S/S patients; from tissue; host or cells: red blood cells of homozygous S/S patients
Experimental: Conversion from oxy (R, relaxed state) to deoxy (T, tense state) HbS in the presence of compound was performed to determine the ability of compounds to stabilize the oxy (R) state under deoxygenating conditions. The assay run was similar to the ‘Oxygen dissociation assay’ described in Oksenberg et al, Br J Haematology, 2016, 175, 141-153.
Assay ready compound plates were prepared by first preparing a master serial dilution plate from a 30 mM initial compound stock in 100% DMSO. From this master serial dilution plate, 167 nL of the desired compound concentration was delivered to the assay ready plates using acoustical dispensing. Plates were frozen at −20° C. until needed. Purified HbS-O2 (i.e. oxy HbS) was diluted to 3 uM in 100 mM potassium phosphate buffer, pH=7.4. 50 uL of 3 uM stock solution was added to each well of the assay ready plate and mechanically mixed eight times. Following mixing the plates were covered and incubated at room temperature for one hour with moderate shaking. Following incubation, the plates were placed in a deoxygenated environment (<1% O2) for two hours, and the conversion to deoxy HbS monitored as a function of time. Oxygenated and deoxygenated forms of hemoglobin were detected using the absorbance of the Soret peaks at 415 and 430 nm respectively, and absorbance measurements (optical density, OD) were taken at 0, 90 and 120 minutes. Background absorbance for correction was collected at 700 nm.
Data were analyzed by first subtracting baseline absorbance at 700 nm from 415 nm and 430 nm data at each timepoint, and then taking the ratio of 415/430 nm data (Ratio=[(OD415−OD700)/(OD430−OD700)]. The effect at each timepoint was calculated using the ratios from the previous calculation at time 0 and each time point of interest (Effect^time x=Ratio^time x/Ratio^time 0). Percent effect was calculated by comparing the effects of compound versus HbS only with the effects observed by the positive control compound tucaresol (percent effect=[(effect^time x compound−effect^time x HbS)/(effect^time x tucaresol−effect^time x HbS)]×100). Data were reported as the percent effect for a single point. Calculations to determine the concentration of compound for 50% inhibition (IC50 (uM)) of the HbS ‘R’-‘T’ conversion were based on the percent effect at varying compound concentration.

[2] = molecular target: T2, purified sickle cell hemoglobin (HbS) (Homo sapiens, UniProt P68871+P69905, E7V); assay: Binding affinity to purified HbS by Surface Plasmon Resonance (SPR); details: crosslinked biotinylated HbS, 1:1 binding model
T2 construct: HbS was obtained from the blood of homozygous S/S patients; from tissue; host or cells: red blood cells of homozygous S/S patients
Experimental: Binding Affinity, Kd (uM)
The binding affinity for compounds to purified sickle cell hemoglobin (HbS) was determined using Surface Plasmon Resonance (SPR). Patient Sickle Cell blood was obtained from Boston Children's Hospital in accordance with Institutional Review Board protocols. HbS was obtained from the blood of homozygous S/S patients, and purified using the method described in: Antonini and Brunori, Hemoglobin and Myoglobin in their Reactions with Ligands. Amsterdam, London, North-Holland Publishing Company, 1971. Whole blood was separated into red blood cell and plasma components by centrifugation, after which the plasma was decanted and discarded. Packed red blood cells were washed with normal saline (0.9% NaCl) and then lysed by 2:1 dilution with cold deionized water. The hemolysate was centrifuged to remove cellular debris, and further purified with the addition of Drabkin's Buffer (2.8 M potassium phosphate), and centrifugation with Celite®. Organic phosphates (2,3-BPG) were removed via gel filtration with Sephadex® G-25. HbS and wild-type hemoglobin, hemoglobin A (HbA), were separated by […], using diethylaminoethyl (DEAE)-Sepharose® fast flow, and eluted using a pH gradient from pH 8.5-pH 7.5. Purity of the resulting HbS and HbA was determined by native gel electrophoresis and HbS fractions used further.
To stabilize the tetrameric structure of hemoglobin, HbS was crosslinked between the beta subunits (Lys82-Lys82) using bis(3,5-dibromosalicyl) fumarate, as described in: Shibayama N. et al, J Am Chem Soc 2014, 136, 13, 5097-5105 and Shibayama N. et al, Biochemistry 1991, 39, 33, 8158-8165). Crosslinked HbS was subsequently biotynylated and captured on a custom made Streptavidin sensor to achieve protein density of 4000 to 5000 resonance units (RUs) on the surface. Compound binding to HbS using SPR was tested on Sierra Sensors MASS-1 instrument. The running buffer contained 100 mM Potassium Phosphate, pH 7.5, 0.005% Tween-20, 1 mM ethylenediaminetetraacetic acid (EDTA), 0.1 mg/mL bovine serum albumin with 1% DMSO. Compound samples were injected at a flow rate of 30 μL/min for 2 minutes association and at least 5 minutes of dissociation time. A 2- or 3-fold dilution series containing at least 4 concentrations were tested for each compound. The dose range was selected based on the activity of the compounds in biochemical assays, when available. Multiple blank injections of running buffer were run before and after each compound series to allow blank subtraction for compound data in the analysis software. Positive controls were run in each experiment to monitor and maintain the activity of HbS on the surface. A DMSO curve was run at the beginning of each data set to apply an excluded volume correction to the data during analysis. The data were processed and analyzed using Sierra Sensors and Scrubber 2.0 software. The binding affinities (dissociation constant Kd) were calculated by fitting the sensorgrams to a 1:1 binding model.

Structure (SMILES) | IC50 [1] [µM] | Kd [2] [µM]
C[C@H](Oc1cc2cc(Br)ccc2nc1N)c1ncc(F)cc1-n1cccn1 [Example 25, 6-bromo-3-{(1S)-1-[5-fluoro-3-(1H-pyrazol-1-yl)pyridin-2-yl]ethoxy}quinolin-2-amine] | 4.78 | 0.067
C[C@H](Oc1cc2cc(F)ccc2nc1N)c1cc(S(N)(=O)=O)ccc1-n1cccn1 [Example 7, 3-{(1S)-1-[(2-amino-6-fluoroquinolin-3-yl)oxy]ethyl}-4-(1H-pyrazol-1-yl)benzenesulfonamide] | – | 0.126
C[C@H](Oc1cc2cc(C(N)=O)c(F)cc2nc1N)c1ncc(F)cc1-n1cccn1 [Example 34, 2-amino-7-fluoro-3-{(1S)-1-[5-fluoro-3-(1H-pyrazol-1-yl)pyridin-2-yl]ethoxy}quinoline-6-carboxamide] | 5.53 | 0.121
C[C@H](Oc1cc2cc(F)ccc2nc1N)c1cc(NS(C)(=O)=O)ccc1-n1cccn1 [Example 18, N-[3-{(1S)-1-[(2-amino-6-fluoroquinolin-3-yl)oxy]ethyl}-4-(1H-pyrazol-1-yl)phenyl]methanesulfonamide] | 7.16 | 0.194
C[C@H](Oc1cc2cc(C#N)ccc2nc1N)c1ncc(F)cc1-n1cccn1 [Example 26, 2-amino-3-{(1S)-1-[5-fluoro-3-(1H-pyrazol-1-yl)pyridin-2-yl]ethoxy}quinoline-6-carbonitrile] | 4.91 | 0.138
Cc1nc2cc(-n3cccn3)c([C@H](C)Oc3cc4cc(F)ccc4nc3N)cc2[nH]1 [Example 64, 6-fluoro-3-{(1S)-1-[2-methyl-5-(1H-pyrazol-1-yl)-1H-benzimidazol-6-yl]ethoxy}quinolin-2-amine] | 5.73 | 0.22
C[C@H](Oc1cc2cc(F)ccc2nc1N)c1cc2c(cnn2CC(=O)O)cc1-n1cccn1 [Example 67, [6-{(1S)-1-[(2-amino-6-fluoroquinolin-3-yl)oxy]ethyl}-5-(1H-pyrazol-1-yl)-1H-indazol-1-yl]acetic Acid] | 3.71 | 0.009
C[C@H](Oc1cc2cc(F)cc(F)c2nc1N)c1cc(C(=O)NS(C)(=O)=O)ccc1-n1cccn1 [Example 24, 3-{(1S)-1-[(2-amino-6,8-difluoroquinolin-3-yl)oxy]ethyl}-N-(methylsulfonyl)-4-(1H-pyrazol-1-yl)benzamide] | 4.66 | 0.015
C[C@H](Oc1cc2cc(F)cc(F)c2nc1N)c1cc(C(=O)O)c(F)cc1-n1cccn1 [Example 23, 5-{(1S)-1-[(2-amino-6,8-difluoroquinolin-3-yl)oxy]ethyl}-2-fluoro-4-(1H-pyrazol-1-yl)benzoic Acid] | 4.01 | 0.043
Cc1cc2nc(N)c(O[C@@H](C)c3cc(C(=O)O)ccc3-n3cccn3)cc2cn1 [Example 22, 3-{(1S)-1-[(2-amino-7-methyl-1,6-naphthyridin-3-yl)oxy]ethyl}-4-(1H-pyrazol-1-yl)benzoic Acid] | 5.4 | 0.172
C[C@H](Oc1cc2cc(F)cc(F)c2nc1N)c1cc2c(cnn2CC(=O)O)cc1-n1cccn1 [Example 69, [6-{(1S)-1-[(2-amino-6,8-difluoroquinolin-3-yl)oxy]ethyl}-5-(1H-pyrazol-1-yl)-1H-indazol-1-yl]acetic Acid] | 4.67 | 0.01
C[C@H](Oc1cc2cc(F)ccc2nc1N)c1cc(C(=O)O)c(F)cc1-n1cccn1 [Example 9, 5-{(1S)-1-[(2-amino-6-fluoroquinolin-3-yl)oxy]ethyl}-2-fluoro-4-(1H-pyrazol-1-yl)benzoic Acid] | 4.72 | 0.087
C[C@H](Oc1cc2cc(F)ccc2nc1N)c1nc(C(=O)O)ccc1-n1cccn1 [Example 37, 6-{(1S)-1-[(2-amino-6-fluoroquinolin-3-yl)oxy]ethyl}-5-(1H-pyrazol-1-yl)pyridine-2-carboxylic Acid] | 6.77 | 0.579
C[C@H](Oc1cc2cc(F)ccc2nc1N)c1cc(-c2noc(=O)[nH]2)ccc1-n1cccn1 [Example 17, 3-[3-{(1S)-1-[(2-amino-6-fluoroquinolin-3-yl)oxy]ethyl}-4-(1H-pyrazol-1-yl)phenyl]-1,2,4-oxadiazol-5(4H)-one] | 5.05 | 0.014
C[C@H](Oc1cc2cc(F)ccc2nc1N)c1cc2nn(CC(=O)O)cc2cc1-n1cccn1 [Example 71, [6-{(1S)-1-[(2-amino-6-fluoroquinolin-3-yl)oxy]ethyl}-5-(1H-pyrazol-1-yl)-2H-indazol-2-yl]acetic Acid] | 4.61 | 0.048
Cc1cc2nc(N)c(O[C@@H](C)c3nc4[nH]ncc4cc3-n3cccn3)cc2cn1 [Example 75, 7-methyl-3-{(1S)-1-[5-(1H-pyrazol-1-yl)-1H-pyrazolo[3,4-b]pyridin-6-yl]ethoxy}-1,6-naphthyridin-2-amine] | 3.76 | 0.036
C[C@H](Oc1cc2cc(C(N)=O)c(F)cc2nc1N)c1nc2[nH]ncc2cc1-n1cccn1 [Example 76, 2-amino-7-fluoro-3-{(1S)-1-[5-(1H-pyrazol-1-yl)-1H-pyrazolo[3,4-b]pyridin-6-yl]ethoxy}quinoline-6-carboxamide] | 28.9 | 0.014
C[C@H](Oc1cc2cc(C(N)=O)ccc2nc1N)c1nc2[nH]ncc2cc1-n1cccn1 [Example 62, 2-amino-3-{(1S)-1-[5-(1H-pyrazol-1-yl)-1H-pyrazolo[3,4-b]pyridin-6-yl]ethoxy}quinoline-6-carboxamide] | – | 0.04
Cc1cc2nc(N)c(O[C@@H](C)c3ncc(F)cc3-n3cccn3)cc2cn1 [Example 36, 3-{(1S)-1-[5-fluoro-3-(1H-pyrazol-1-yl)pyridin-2-yl]ethoxy}-7-methyl-1,6-naphthyridin-2-amine] | 7.71 | 0.16
C[C@H](Oc1cc2cc(F)ccc2nc1N)c1cc2[nH]ncc2cc1-n1cccn1 (single isomer, unassigned) [Example 59] | 4.5 | 0.047
C[C@H](Oc1cc2cc(F)ccc2nc1N)c1cc2c(cnn2CC(N)=O)cc1-n1cccn1 [Example 70, 2-[6-{(1S)-1-[(2-amino-6-fluoroquinolin-3-yl)oxy]ethyl}-5-(1H-pyrazol-1-yl)-1H-indazol-1-yl]acetamide] | 4.6 | 0.013
C[C@H](Oc1cc2cc(F)cc(F)c2nc1N)c1cc(-c2noc(=O)[nH]2)ccc1-n1cccn1 [Example 80, (S)-3-(3-(1-((2-amino-6,8-difluoroquinolin-3-yl)oxy)ethyl)-4-(1H-pyrazol-1-yl)phenyl)-1,2,4-oxadiazol-5(4H)-one] | – | 0.036
